# Reference: US20250263370A1 (Tay Therapeutics Limited, priority 2022, published 2025)
# Where “and” joins values, the source holds several entries; their conditions need not be identical. Equal entries are not always repeated.
# Test system: collagen-induced arthritis
# Assay: Collagen-induced arthritis (CIA) model in rats: body weight, paw volume, clinical scores, clinical observations; as to Average detailed clinical score, left hind limb: key of the grades not given here; as to Average detailed clinical score, right hind limb: key of the grades not given here; as to Detailed Clinical Scores: left forelimb: key of the grades not given here; as to Detailed Clinical Scores: left hind limb: key of the grades not given here; as to Detailed Clinical Scores: right forelimb: key of the grades not given here; as to Detailed Clinical Scores: right hind limb: key of the grades not given here; as to Detailed Clinical Scores: score: key of the grades not given here; as to Mean overall clinical score ± SD: key of the grades not given here; as to overall clinical score: key of the grades not given here
# Settings: for Average detailed clinical score, left hind limb / Average detailed clinical score, right forelimb / Average detailed clinical score, right hind limb / Average detailed clinical score, score / Mean overall clinical score ± SD / Overall clinical score / Average detailed clinical score, left forelimb / Detailed Clinical Scores: left forelimb / Detailed Clinical Scores: left hind limb / Detailed Clinical Scores: right forelimb / Detailed Clinical Scores: right hind limb / Detailed Clinical Scores: score: CIA rats; for Overall clinical score: individual animals #1-8; for Mean animal paw volume ± SD: group mean; for Animal paw volume percent change: individual animals; for Detailed Clinical Scores: left forelimb / Detailed Clinical Scores: left hind limb / Detailed Clinical Scores: right forelimb / Detailed Clinical Scores: right hind limb / Detailed Clinical Scores: score: individual animals ID 1-8
structure (smiles),measurement,setting,value
"CNC(=O)c1[nH]c(C(=O)NC2CCC2)cc1O[C@@H](C)c1ccccc1 (stereo in doubt) [Example 101, N^5-cyclobutyl-N^2-methyl-3-(1-phenylethoxy)-1H-pyrrole-2,5-dicarboxamide]","Average detailed clinical score, left hind limb","Day 15, 3 mg/kg",2.00
same,"Average detailed clinical score, right forelimb","Day 15, 3 mg/kg",0.25
same,"Average detailed clinical score, right hind limb","Day 15, 3 mg/kg",2.13
same,"Average detailed clinical score, score","Day 15, 3 mg/kg",4.38
same,Mean overall clinical score ± SD,"Day 15, 3 mg/kg",4 ± 2
same,Overall clinical score,"Day 15, 3 mg/kg",2 and 3 (3×) and 6 (2×) and 8 and 4
same,"Average detailed clinical score, left forelimb","Day 15, 10 mg/kg",0.00
same,"Average detailed clinical score, left hind limb","Day 15, 10 mg/kg",1.75
same,"Average detailed clinical score, right forelimb","Day 15, 10 mg/kg",0.00
same,"Average detailed clinical score, right hind limb","Day 15, 10 mg/kg",1.50
same,"Average detailed clinical score, score","Day 15, 10 mg/kg",3.25
same,Mean overall clinical score ± SD,"Day 15, 10 mg/kg",3 ± 3
same,Overall clinical score,"Day 15, 10 mg/kg",5 and 4 and 7
same,"Average detailed clinical score, left forelimb","Day 15, 30 mg/kg",0.00
same,"Average detailed clinical score, left hind limb","Day 15, 30 mg/kg",0.38
same,"Average detailed clinical score, right forelimb","Day 15, 30 mg/kg",0.00
same,"Average detailed clinical score, right hind limb","Day 15, 30 mg/kg",0.50
same,"Average detailed clinical score, score","Day 15, 30 mg/kg",0.88
same,Mean overall clinical score ± SD,"Day 15, 30 mg/kg",1 ± 1
same,Mean animal paw volume ± SD,"Day 18, L paw, 3 mg/kg",2.49 mL
same,Animal paw volume percent change,"Day 18, L paw, 3 mg/kg",83.52% and 101.14% and 98.86% and 81.04% and 106.51% and 80.59% and 82.40%
same,Mean animal paw volume ± SD,"Day 18, L paw, 10 mg/kg",2.08 mL
same,Animal paw volume percent change,"Day 18, L paw, 10 mg/kg",72.92% and 61.90% and 97.28% and 109.73% and 15.71% and 76.54%
same,Mean animal paw volume ± SD,"Day 18, L paw, 30 mg/kg",1.70 mL
same,Mean animal paw volume ± SD,"Day 18, R paw, 3 mg/kg",2.53 mL
same,Animal paw volume percent change,"Day 18, R paw, 3 mg/kg",67.68% and 91.39% and 100.38% and 76.49% and 106.51% and 89.22% and 86.89%
same,Mean animal paw volume ± SD,"Day 18, R paw, 10 mg/kg",2.02 mL
same,Animal paw volume percent change,"Day 18, R paw, 10 mg/kg",58.36% and 65.34% and 94.21% and 111.20% and 22.39% and 46.36%
same,Mean animal paw volume ± SD,"Day 18, R paw, 30 mg/kg",1.63 mL
same,Detailed Clinical Scores: left forelimb,"Day 18, 3 mg/kg",0
same,Detailed Clinical Scores: left hind limb,"Day 18, 3 mg/kg",3 and 4
same,Detailed Clinical Scores: right forelimb,"Day 18, 3 mg/kg",0
same,Detailed Clinical Scores: right hind limb,"Day 18, 3 mg/kg",4 and 3
same,Detailed Clinical Scores: score,"Day 18, 3 mg/kg",7
same,"Average detailed clinical score, left forelimb","Day 18, 3 mg/kg",0.50
same,"Average detailed clinical score, left hind limb","Day 18, 3 mg/kg",3.88
same,"Average detailed clinical score, right forelimb","Day 18, 3 mg/kg",0.50
same,"Average detailed clinical score, right hind limb","Day 18, 3 mg/kg",3.88
same,"Average detailed clinical score, score","Day 18, 3 mg/kg",8.75
same,Mean overall clinical score ± SD,"Day 18, 3 mg/kg",9 ± 2
same,Overall clinical score,"Day 18, 3 mg/kg",7 (2×) and 8 (4×) and 12 (2×)
same,"Average detailed clinical score, left forelimb","Day 18, 10 mg/kg",0.00
same,"Average detailed clinical score, left hind limb","Day 18, 10 mg/kg",2.50
same,"Average detailed clinical score, right forelimb","Day 18, 10 mg/kg",0.88
same,"Average detailed clinical score, right hind limb","Day 18, 10 mg/kg",2.25
same,"Average detailed clinical score, score","Day 18, 10 mg/kg",5.63
same,Mean overall clinical score ± SD,"Day 18, 10 mg/kg",6 ± 4
same,Overall clinical score,"Day 18, 10 mg/kg",7 and 6 and 12
same,"Average detailed clinical score, left forelimb","Day 18, 30 mg/kg",0.00
same,"Average detailed clinical score, left hind limb","Day 18, 30 mg/kg",1.13
same,"Average detailed clinical score, right forelimb","Day 18, 30 mg/kg",0.00
same,"Average detailed clinical score, right hind limb","Day 18, 30 mg/kg",0.88
same,"Average detailed clinical score, score","Day 18, 30 mg/kg",2.00
same,Mean overall clinical score ± SD,"Day 18, 30 mg/kg",2 ± 2
same,Mean animal paw volume ± SD,"Day 19, L paw, 3 mg/kg",2.64 mL
same,Animal paw volume percent change,"Day 19, L paw, 3 mg/kg",91.95% and 116.35% and 108.75% and 85.50% and 107.28% and 90.11% and 81.65%
same,Mean animal paw volume ± SD,"Day 19, L paw, 10 mg/kg",2.07 mL
same,Animal paw volume percent change,"Day 19, L paw, 10 mg/kg",71.48% and 61.51% and 93.39% and 105.45% and 13.03%
same,Mean animal paw volume ± SD,"Day 19, L paw, 30 mg/kg",1.76 mL
same,Mean animal paw volume ± SD,"Day 19, R paw, 3 mg/kg",2.60 mL
same,Animal paw volume percent change,"Day 19, R paw, 3 mg/kg",67.68% and 117.60% and 98.86% and 76.49% and 104.98% and 107.81% and 86.14%
same,Mean animal paw volume ± SD,"Day 19, R paw, 10 mg/kg",2.02 mL
same,Animal paw volume percent change,"Day 19, R paw, 10 mg/kg",67.62% and 63.35% and 90.35% and 108.88% and 21.62%
same,Mean animal paw volume ± SD,"Day 19, R paw, 30 mg/kg",1.74 mL
same,Detailed Clinical Scores: left forelimb,"Day 19, 3 mg/kg",1 and 0
same,Detailed Clinical Scores: left hind limb,"Day 19, 3 mg/kg",4
same,Detailed Clinical Scores: right forelimb,"Day 19, 3 mg/kg",0
same,Detailed Clinical Scores: right hind limb,"Day 19, 3 mg/kg",4 and 3
same,Detailed Clinical Scores: score,"Day 19, 3 mg/kg",9 and 7
same,"Average detailed clinical score, left forelimb","Day 19, 3 mg/kg",1.13
same,"Average detailed clinical score, left hind limb","Day 19, 3 mg/kg",4.00
same,"Average detailed clinical score, right forelimb","Day 19, 3 mg/kg",1.00
same,"Average detailed clinical score, right hind limb","Day 19, 3 mg/kg",3.75
same,"Average detailed clinical score, score","Day 19, 3 mg/kg",9.88
same,Mean overall clinical score ± SD,"Day 19, 3 mg/kg",10 ± 3
same,Overall clinical score,"Day 19, 3 mg/kg",9 and 7 (2×) and 8 (2×) and 16 and 12 (2×)
same,"Average detailed clinical score, left forelimb","Day 19, 10 mg/kg",0.00
same,"Average detailed clinical score, left hind limb","Day 19, 10 mg/kg",2.38
same,"Average detailed clinical score, right forelimb","Day 19, 10 mg/kg",1.13
same,"Average detailed clinical score, right hind limb","Day 19, 10 mg/kg",2.88
same,"Average detailed clinical score, score","Day 19, 10 mg/kg",6.38
same,Mean overall clinical score ± SD,"Day 19, 10 mg/kg",6 ± 4
same,Overall clinical score,"Day 19, 10 mg/kg",7 and 6 and 12
same,"Average detailed clinical score, left forelimb","Day 19, 30 mg/kg",0.00
same,"Average detailed clinical score, left hind limb","Day 19, 30 mg/kg",1.63
same,"Average detailed clinical score, right forelimb","Day 19, 30 mg/kg",0.25
same,"Average detailed clinical score, right hind limb","Day 19, 30 mg/kg",1.75
same,"Average detailed clinical score, score","Day 19, 30 mg/kg",3.63
same,Mean overall clinical score ± SD,"Day 19, 30 mg/kg",4 ± 3
same,Mean animal paw volume ± SD,"Day 21, L paw, 3 mg/kg",2.67 mL
same,Animal paw volume percent change,"Day 21, L paw, 3 mg/kg",90.42% and 128.52% and 109.51% and 86.25% and 104.98% and 93.04% and 80.15%
same,Mean animal paw volume ± SD,"Day 21, L paw, 10 mg/kg",2.09 mL
same,Animal paw volume percent change,"Day 21, L paw, 10 mg/kg",71.48% and 60.71% and 92.61% and 105.06% and 13.03%
same,Mean animal paw volume ± SD,"Day 21, L paw, 30 mg/kg",1.82 mL
same,Mean animal paw volume ± SD,"Day 21, R paw, 3 mg/kg",2.59 mL
same,Animal paw volume percent change,"Day 21, R paw, 3 mg/kg",69.20% and 117.60% and 97.35% and 74.25% and 106.13% and 105.58% and 84.64%
same,Mean animal paw volume ± SD,"Day 21, R paw, 10 mg/kg",2.08 mL
same,Animal paw volume percent change,"Day 21, R paw, 10 mg/kg",66.90% and 62.15% and 89.58% and 106.95% and 21.62%
same,Mean animal paw volume ± SD,"Day 21, R paw, 30 mg/kg",1.79 mL
same,"Average detailed clinical score, left forelimb","Day 21, 3 mg/kg",1.00
same,"Average detailed clinical score, left hind limb","Day 21, 3 mg/kg",4.00
same,"Average detailed clinical score, right forelimb","Day 21, 3 mg/kg",1.00
same,"Average detailed clinical score, right hind limb","Day 21, 3 mg/kg",3.75
same,"Average detailed clinical score, score","Day 21, 3 mg/kg",9.75
same,Mean overall clinical score ± SD,"Day 21, 3 mg/kg",10 ± 3
same,Overall clinical score,"Day 21, 3 mg/kg",9 and 7 (2×) and 8 (2×) and 14 and 13 and 12
same,"Average detailed clinical score, left forelimb","Day 21, 10 mg/kg",0.00
same,"Average detailed clinical score, left hind limb","Day 21, 10 mg/kg",2.50
same,"Average detailed clinical score, right forelimb","Day 21, 10 mg/kg",1.25
same,"Average detailed clinical score, right hind limb","Day 21, 10 mg/kg",2.75
same,"Average detailed clinical score, score","Day 21, 10 mg/kg",6.50
same,Mean overall clinical score ± SD,"Day 21, 10 mg/kg",7 ± 4
same,Overall clinical score,"Day 21, 10 mg/kg",7 and 6 and 12 (2×)
same,"Average detailed clinical score, left forelimb","Day 21, 30 mg/kg",0.00
same,"Average detailed clinical score, left hind limb","Day 21, 30 mg/kg",1.88
same,"Average detailed clinical score, right forelimb","Day 21, 30 mg/kg",0.13
same,"Average detailed clinical score, right hind limb","Day 21, 30 mg/kg",1.63
same,"Average detailed clinical score, score","Day 21, 30 mg/kg",3.63
same,Mean overall clinical score ± SD,"Day 21, 30 mg/kg",4 ± 3
